Data from ChEMBL document CHEMBL2440076, “New triarylpyrazoles as broad-spectrum anticancer agents: design, synthesis, and biological evaluation” (Eur J Med Chem, 2013).

What was measured:
Type in all cases: functional
SF-268 = experiment: Growth inhibition of human SF268 cells assessed as cell growth at 5X10'-6 M after 48 hrs by sulforhodamine B assay; conditions: SF-268, 48 h, read-out: Activity
[1] = Growth inhibition of human NCI-ADR-RES cells assessed as cell growth at 5X10'-9 M after 48 hrs by sulforhodamine B assay; conditions: read-out: Activity
LOX IMVI = experiment: Growth inhibition of human LOXIMVI cells assessed as cell growth at 5X10'-8 M after 48 hrs by sulforhodamine B assay; conditions: read-out: Activity
HT-29 = experiment: Growth inhibition of human HT-29 cells assessed as cell growth at 5X10'-9 M after 48 hrs by sulforhodamine B assay; conditions: HT-29, 48 h, read-out: Activity
786-0 = experiment: Growth inhibition of human 786-0 cells assessed as cell growth at 5X10'-7 M after 48 hrs by sulforhodamine B assay; conditions: 786-0, 48 h, read-out: Activity
SN12C [2] = experiment: Growth inhibition of human SN12C cells assessed as cell growth at 5X10'-5 M after 48 hrs by sulforhodamine B assay; conditions: read-out: Activity
BT-549 = experiment: Growth inhibition of human BT549 cells assessed as cell growth at 5X10'-9 M after 48 hrs by sulforhodamine B assay; conditions: BT-549, 48 h, read-out: Activity
SF-539 = experiment: Growth inhibition of human SF539 cells assessed as cell growth at 5X10'-9 M after 48 hrs by sulforhodamine B assay; conditions: SF-539, 48 h, read-out: Activity
UACC-257 [3] = experiment: Growth inhibition of human UACC257 cells assessed as cell growth at 5X10'-7 M after 48 hrs by sulforhodamine B assay; conditions: UACC-257, 48 h, read-out: Activity
HCT-116 = experiment: Growth inhibition of human HCT116 cells assessed as cell growth at 5X10'-9 M after 48 hrs by sulforhodamine B assay; conditions: HCT-116, 48 h, read-out: Activity
SNB-19 = experiment: Growth inhibition of human SNB19 cells assessed as cell growth at 5X10'-6 M after 48 hrs by sulforhodamine B assay; conditions: SNB-19, 48 h, read-out: Activity
SNB-75 = experiment: Growth inhibition of human SNB75 cells assessed as cell growth at 5X10'-8 M after 48 hrs by sulforhodamine B assay; conditions: SNB-75, 48 h, read-out: Activity
SK-MEL-28 = experiment: Growth inhibition of human SK-MEL-28 cells assessed as cell growth at 5X10'-5 M after 48 hrs by sulforhodamine B assay; conditions: SK-MEL-28, 48 h, read-out: Activity
HOP-92 = experiment: Growth inhibition of human HOP92 cells assessed as cell growth at 5X10'-9 M after 48 hrs by sulforhodamine B assay; conditions: HOP-92, 48 h, read-out: Activity
[4] = Growth inhibition of human Hs 578T cells assessed as cell growth at 5X10'-6 M after 48 hrs by sulforhodamine B assay; conditions: read-out: Activity
RXF 393 = experiment: Growth inhibition of human RXF393 cells assessed as cell growth at 5X10'-6 M after 48 hrs by sulforhodamine B assay; conditions: RXF 393, 48 h, read-out: Activity
TK-10 = experiment: Growth inhibition of human TK10 cells assessed as cell growth at 5X10'-7 M after 48 hrs by sulforhodamine B assay; conditions: TK-10, 48 h, read-out: Activity
OVCAR-4 = experiment: Growth inhibition of human OVCAR4 cells assessed as cell growth at 5X10'-5 M after 48 hrs by sulforhodamine B assay; conditions: OVCAR-4, 48 h, read-out: Activity
IGROV-1 [5] = experiment: Growth inhibition of human IGROV1 cells assessed as cell growth at 5X10'-6 M after 48 hrs by sulforhodamine B assay; conditions: IGROV-1, 48 h, read-out: Activity
SK-OV-3 [6] = experiment: Growth inhibition of human SKOV3 cells assessed as cell growth at 5X10'-7 M after 48 hrs by sulforhodamine B assay; conditions: SK-OV-3, 48 h, read-out: Activity
SN12C [7] = experiment: Growth inhibition of human SN12C cells assessed as cell growth at 5X10'-8 M after 48 hrs by sulforhodamine B assay; conditions: read-out: Activity
SK-MEL-5 = experiment: Growth inhibition of human SK-MEL-5 cells assessed as cell growth at 5X10'-9 M after 48 hrs by sulforhodamine B assay; conditions: SK-MEL-5, 48 h, read-out: Activity
NCI-H460 = experiment: Growth inhibition of human NCI-H460 cells assessed as cell growth at 5X10'-5 M after 48 hrs by sulforhodamine B assay; conditions: NCI-H460, 48 h, read-out: Activity
OVCAR-8 = experiment: Growth inhibition of human OVCAR8 cells assessed as cell growth at 5X10'-9 M after 48 hrs by sulforhodamine B assay; conditions: OVCAR-8, 48 h, read-out: Activity
SR = experiment: Growth inhibition of human SR cells assessed as cell growth at 5X10'-5 M after 48 hrs by sulforhodamine B assay; conditions: read-out: Activity
NCI-H226 = experiment: Growth inhibition of human NCI-H226 cells assessed as cell growth at 5X10'-6 M after 48 hrs by sulforhodamine B assay; conditions: NCI-H226, 48 h, read-out: Activity
MDA-MB-468 = experiment: Growth inhibition of human MDA-MB-468 cells assessed as cell growth at 5X10'-5 M after 48 hrs by sulforhodamine B assay; conditions: MDA-MB-468, 48 h, read-out: Activity
HL-60(TB) [8] = experiment: Growth inhibition of human HL-60(TB) cells assessed as cell growth at 5X10'-9 M after 48 hrs by sulforhodamine B assay; conditions: HL-60, 48 h, read-out: Activity
[9] = Growth inhibition of human Hs 578T cells assessed as cell growth at 5X10'-9 M after 48 hrs by sulforhodamine B assay; conditions: read-out: Activity
UACC-257 [10] = experiment: Growth inhibition of human UACC257 cells assessed as cell growth at 5X10'-9 M after 48 hrs by sulforhodamine B assay; conditions: UACC-257, 48 h, read-out: Activity
UACC-62 = experiment: Growth inhibition of human UACC62 cells assessed as cell growth at 5X10'-8 M after 48 hrs by sulforhodamine B assay; conditions: UACC-62, 48 h, read-out: Activity
SK-OV-3 [11] = experiment: Growth inhibition of human SKOV3 cells assessed as cell growth at 5X10'-5 M after 48 hrs by sulforhodamine B assay; conditions: SK-OV-3, 48 h, read-out: Activity
CCRF-CEM = experiment: Growth inhibition of human CCRF-CEM cells assessed as cell growth at 5X10'-5 M after 48 hrs by sulforhodamine B assay; conditions: read-out: Activity
Malme-3M = experiment: Growth inhibition of human MALME-3M cells assessed as cell growth at 5X10'-8 M after 48 hrs by sulforhodamine B assay; conditions: read-out: Activity
IGROV-1 [12] = experiment: Growth inhibition of human IGROV1 cells assessed as cell growth at 5X10'-7 M after 48 hrs by sulforhodamine B assay; conditions: IGROV-1, 48 h, read-out: Activity
[13] = Growth inhibition of human NCI-ADR-RES cells assessed as cell growth at 5X10'-7 M after 48 hrs by sulforhodamine B assay; conditions: read-out: Activity
HL-60(TB) [14] = experiment: Growth inhibition of human HL-60(TB) cells assessed as cell growth at 5X10'-5 M after 48 hrs by sulforhodamine B assay; conditions: HL-60, 48 h, read-out: Activity

COc1cc(-c2nn(-c3cccc(NC(=O)c4cccc(C(F)(F)F)c4)c3)cc2-c2ccncc2)ccc1Cl
growth at 5 µM (SF-268): 28% | growth at 0.005 µM [1]: 96% | growth at 0.05 µM (LOX IMVI): 91% | growth at 0.005 µM (HT-29): 96% | growth at 0.5 µM (786-0): 101% | growth at 50 µM (SN12C [2]): 24% | growth at 0.005 µM (BT-549): 99% | growth at 0.005 µM (SF-539): 95% | growth at 0.5 µM (UACC-257 [3]): 87% | growth at 0.005 µM (HCT-116): 99% | growth at 5 µM (SNB-19): 28% | growth at 0.05 µM (SNB-75): 89% | growth at 50 µM (SK-MEL-28): 38% | growth at 0.005 µM (HOP-92): 90% | growth at 5 µM [4]: 2% | growth at 5 µM (RXF 393): -17% | growth at 0.5 µM (TK-10): 108% | growth at 50 µM (OVCAR-4): 29% | growth at 5 µM (IGROV-1 [5]): 22% | growth at 0.5 µM (SK-OV-3 [6]): 101% | growth at 0.05 µM (SN12C [7]): 99% | growth at 0.005 µM (SK-MEL-5): 98% | growth at 50 µM (NCI-H460): -10% | growth at 0.005 µM (OVCAR-8): 97% | growth at 50 µM (SR): -2% | growth at 5 µM (NCI-H226): 18% | growth at 50 µM (MDA-MB-468): -32% | growth at 0.005 µM (HL-60(TB) [8]): 89% | growth at 0.005 µM [9]: 91% | growth at 0.005 µM (UACC-257 [10]): 105% | growth at 0.05 µM (UACC-62): 96% | growth at 50 µM (SK-OV-3 [11]): 17% | growth at 50 µM (CCRF-CEM): 4% | growth at 0.05 µM (Malme-3M): 82% | growth at 0.5 µM (IGROV-1 [12]): 86% | growth at 0.5 µM [13]: 86% | growth at 50 µM (HL-60(TB) [14]): 5%

O=C(Nc1cccc(-n2cc(-c3ccncc3)c(-c3ccc(Cl)c(O)c3)n2)c1)Nc1cc(C(F)(F)F)cc(C(F)(F)F)c1
growth at 5 µM (SF-268): -27% | growth at 0.005 µM [1]: 102% | growth at 0.05 µM (LOX IMVI): 100% | growth at 0.005 µM (HT-29): 110% | growth at 0.5 µM (786-0): 93% | growth at 50 µM (SN12C [2]): -48% | growth at 0.005 µM (BT-549): 99% | growth at 0.005 µM (SF-539): 98% | growth at 0.5 µM (UACC-257 [3]): 84% | growth at 0.005 µM (HCT-116): 101% | growth at 5 µM (SNB-19): 16% | growth at 0.05 µM (SNB-75): 86% | growth at 50 µM (SK-MEL-28): -95% | growth at 0.005 µM (HOP-92): 83% | growth at 5 µM [4]: -8% | growth at 5 µM (RXF 393): -36% | growth at 0.5 µM (TK-10): 75% | growth at 50 µM (OVCAR-4): -74% | growth at 5 µM (IGROV-1 [5]): -12% | growth at 0.5 µM (SK-OV-3 [6]): 98% | growth at 0.05 µM (SN12C [7]): 96% | growth at 0.005 µM (SK-MEL-5): 104% | growth at 50 µM (NCI-H460): -78% | growth at 0.005 µM (OVCAR-8): 101% | growth at 50 µM (SR): -8% | growth at 5 µM (NCI-H226): 6% | growth at 50 µM (MDA-MB-468): -55% | growth at 0.005 µM (HL-60(TB) [8]): 115% | growth at 0.005 µM [9]: 97% | growth at 0.005 µM (UACC-257 [10]): 94% | growth at 0.05 µM (UACC-62): 92% | growth at 50 µM (SK-OV-3 [11]): -49% | growth at 50 µM (CCRF-CEM): -18% | growth at 0.05 µM (Malme-3M): 100% | growth at 0.5 µM (IGROV-1 [12]): 71% | growth at 0.5 µM [13]: 74% | growth at 50 µM (HL-60(TB) [14]): -4%

O=C(Nc1cccc(-n2cc(-c3ccncc3)c(-c3ccc(Cl)c(O)c3)n2)c1)c1ccc(N2CCOCC2)c(C(F)(F)F)c1
growth at 5 µM (SF-268): 51% | growth at 0.005 µM [1]: 97% | growth at 0.05 µM (LOX IMVI): 96% | growth at 0.005 µM (HT-29): 101% | growth at 0.5 µM (786-0): 95% | growth at 50 µM (SN12C [2]): 39% | growth at 0.005 µM (BT-549): 100% | growth at 0.005 µM (SF-539): 92% | growth at 0.5 µM (UACC-257 [3]): 90% | growth at 0.005 µM (HCT-116): 99% | growth at 5 µM (SNB-19): 45% | growth at 0.05 µM (SNB-75): 88% | growth at 50 µM (SK-MEL-28): -54% | growth at 0.005 µM (HOP-92): 85% | growth at 5 µM [4]: 25% | growth at 5 µM (RXF 393): -18% | growth at 0.5 µM (TK-10): 97% | growth at 50 µM (OVCAR-4): 46% | growth at 5 µM (IGROV-1 [5]): 68% | growth at 0.5 µM (SK-OV-3 [6]): 106% | growth at 0.05 µM (SN12C [7]): 98% | growth at 0.005 µM (SK-MEL-5): 101% | growth at 50 µM (NCI-H460): -10% | growth at 0.005 µM (OVCAR-8): 101% | growth at 50 µM (SR): 8% | growth at 5 µM (NCI-H226): 100% | growth at 50 µM (MDA-MB-468): -24% | growth at 0.005 µM (HL-60(TB) [8]): 98% | growth at 0.005 µM [9]: 92% | growth at 0.005 µM (UACC-257 [10]): 100% | growth at 0.05 µM (UACC-62): 100% | growth at 50 µM (SK-OV-3 [11]): 36% | growth at 50 µM (CCRF-CEM): 14% | growth at 0.05 µM (Malme-3M): 87% | growth at 0.5 µM (IGROV-1 [12]): 112% | growth at 0.5 µM [13]: 96% | growth at 50 µM (HL-60(TB) [14]): 4%
